Assay results published in article PMC10916623, “Tissue distribution and pharmacokinetics of isoxanthohumol from hops in rodents” (Food Science & Nutrition, 2023).
Where “and” joins values, the source holds several entries; their conditions need not be identical. Equal entries are not always repeated.

Legend:
[1] = Plasma pharmacokinetics after single-gavage administration of IXA to mice; format: in vivo, C57/BL6 mice; details: single oral IXA 50 mg/kg BW, data not shown
Procedure: (§1) Six‐week‐old male C57/BL6 mice (initial BW: 19–24 g; Japan SLC, Shizuoka, Japan) were housed in a room maintained at 23–26°C with a 12‐h light–dark cycle. During the 1‐week acclimatization period, they were allowed free access to a commercial diet (Oriental Yeast Co., Tokyo, Japan) and water. Two days before the experiment, they were fed AIN‐93M (Oriental Yeast Co.). Before drug administration, they were fasted for 20 h, but had free access to water. IXA dissolved in 3% hydroxypropyl‐β‐cyclodextrin and 5% ethanol (Fujifilm; Wako Pure Chemical Corp., Osaka, Japan) was named the injection solution and administered (50 mg/kg BW) to mice intragastrically using a gastric feeding tube (AS ONE, Osaka, Japan). Blood, brain, thymus, heart, lung, liver, spleen, pancreas, kidney, and gastrocnemius muscle were collected 0.5, 1, 2, 4, 8, 12, 24, and 48 h after administration. We also set up a control group, and mice in this group were sacrificed just before we started administering IXA at 0 h. At 4 h after administration, mice were allowed free access to AIN‐93 M. Plasma was isolated by centrifugation at 17 × 10^3 m/s^2 (5911, Kubota, Tokyo, Japan) for 5 min at 4°C. All tissues were dissected, weighed, and immediately frozen in liquid nitrogen. All samples were stored at −80°C until analysis.
(§2) Plasma samples were deconjugated by β‐glucuronidase type H‐1 (which has β‐glucuronidase and sulphatase activity; Sigma, St. Louis, MO, USA; G0751) to convert aglycon from conjugated metabolites of IXA and 8‐PN, as described in a previous report (Y. Tanaka et al., [2022]). Briefly, 100 μL of plasma was mixed with 900 μL of 0.1 mol/L sodium acetate buffer (pH 4.7), 200 μL of 50 mmol/L ascorbic acid, and 1 mL of 1.67 μkat/100 μL of β‐glucuronidase type H‐1, and then incubated for 30 min at 37°C. Then, 2.4 nmol of QTM was added to the samples as the internal standard. The liberated aglycone was extracted using ethyl acetate (Kanto Kagaku, 14,029‐2B).
(§3) The plasma and tissue extracts were evaporated using a Centrifugal Evaporator (EYERA, Tokyo, Japan, CVE‐3000). The samples were stored at −80°C until the next day. Then, the samples were dissolved in 120 μL of a mobile phase solution and divided into two test tubes. The first sample was injected into the HPLC with an ultraviolet detection system (Shimadzu, Kyoto, Japan).
(§4) IXA and 8‐PN concentrations were determined by their respective standard curves using an internal standard method. A Cadenza 3‐μm CD‐C18 HPLC column (CD005, 150 × 4.6 mm; Imtakt Corporation, Kyoto, Japan) was equipped for HPLC (λ = 295 nm). The mobile phase consisted of methanol:water:acetic acid (60:35:5, v/v/v). The flow rate was set at 1.0 mL/min. […] Because clear peaks over 4.5 pmol/sample were detected for IXA and 8‐PN by visual evaluation, we determined that these concentrations were the peak limit of detections for each flavonoid. We applied calibration curves in the IXA/QTM concentration ratio range of 0.007–35.1 (R ^2 = .9955).

[2] = Tissue distribution after single-gavage administration of IXA to mice; format: in vivo, C57/BL6 mice; details: for 8-PN accumulation, single-ingestion test (at 24 h) / AUC (0–48 h) 8-PN/IXA / C max 8-PN: mice; for 8-PN accumulation, single-ingestion test (at 24 h): single IXA 50 mg/kg BW; for 8-PN accumulation, single-ingestion test (at 24 h) / C max 8-PN: metabolite; for AUC (0–48 h) 8-PN/IXA / C max 8-PN: single oral IXA 50 mg/kg BW
Procedure: as §1
(§5) Tissue sample deconjugation was performed as described in a previous report with slight modifications (Tanaka et al., [2022]). Tissues were homogenized in phosphate‐buffered saline (pH 7.4), which was nine times the tissue volume. The tissue homogenate was incubated in 50 mmol/L ascorbic acid (one‐fifth the volume of phosphate‐buffered saline) and 1.67 μkat/100 μL of β‐glucuronidase type H‐1 in 0.1 mol/L sodium acetate buffer (pH 4.7, nine times the volume of the sample) for 2 h at 37°C. Then, 2.4 nmol of QTM was added to samples as an internal standard. The supernatant was isolated by centrifugation at 17 × 10^3 m/s^2 (Kubota) for 5 min at 4°C. Then, methanol (Kanto Kagaku, 25183‐2B) was added to the pellets, and they were shaken for 1 min. The methanol layer and pellets were separated by centrifugation at 17 × 10^3 m/s^2 (Kubota, RY1071‐A000) for 5 min at 4°C. Methanol extraction was repeated three times. Finally, methanol extracts were mixed with the supernatant (the composition of the mixture was 30% methanol) and then applied to an Inert Sep C8 (200 mg/3 mL; GL Sciences, Tokyo, Japan; 5010‐61082) cartridge. The cartridge was preconditioned with 6 mL of 2% acetic acid in methanol, and then 9 mL of 2% acetic acid in water. The extracted tissue was passed through the cartridge, and it was washed with 5 mL of 2% acetic acid in 30% methanol aq. The flavonoids were eluted with 10 mL of 2% acetic acid in methanol.
as §3, §4

[3] = Tissue and plasma accumulation after daily gavage administration of IXA to mice for 14 days; format: in vivo, C57/BL6 mice; details: IXA 30 mg/kg BW daily 14 days, metabolite, 24 h after final administration
Procedure: Animal species, age, sex, initial BW, feeding conditions, and dosage method were the same as those for the single gavage administration test, but the dose was 30 mg/kg BW. […] Daily gavage administration without fasting was performed at 12:00 PM for 14 days. The final BW was 21–26 g. Blood, brain, thymus, heart, lung, liver, spleen, kidney, and gastrocnemius muscle were collected 24 h after the final administration. The sample collection method was the same as that for the single gavage administration test.
as §2, §5, §3, §4

[4] = Liver accumulation after intragastric IXA administration at various concentrations to rats for 28 days; format: in vivo, Sprague–Dawley rats; details: rat liver
Procedure: Six‐week‐old female Sprague–Dawley rats (Charles River Laboratories Japan, Inc., Yokohama, Japan) were housed in a room maintained at 20–26°C on a 12‐h light–dark cycle. The initial BW of rats was 176–179 g. They were allowed free access to a commercial diet (CRF‐1) and water during the experiment. IXA dissolved in injection solution was administered intragastrically to rats (112.5, 225, 360, 450, and 1500 mg/kg BW) daily for 28 days using a gastric feeding tube. We also set up a control group to which the injection solution was administered. The final BW of rats was 231–241 g. The liver was collected the day after the last administration. The rats were fasted for 16–24 h before they were euthanized, but they had free access to water. Liver samples were stored at −80°C until analysis.
as §5
The plasma and tissue extracts were evaporated using a Centrifugal Evaporator (EYERA, Tokyo, Japan, CVE‐3000). The samples were stored at −80°C until the next day. Then, the samples were dissolved in 120 μL of a mobile phase solution and divided into two test tubes. […]
IXA and 8‐PN concentrations were determined by their respective standard curves using an internal standard method. […] Because clear peaks over 4.5 pmol/sample were detected for IXA and 8‐PN by visual evaluation, we determined that these concentrations were the peak limit of detections for each flavonoid. […]

With “4,5,7‐trihydroxy‐8‐prenylflavanone [8‐PN]” the “8-PN in the plasma during the experiment” value [1] was “not observed”, the “8-PN accumulation, single-ingestion test (at 24 h)” value ([2]; liver) was 4.6 ± 1.8 nmol/g of tissue and the “AUC (0–48 h) 8-PN/IXA” value ([2]; liver) was 26%. The “C max 8-PN” value ([2]; liver, measured at 24 h) was 4.6 ± 1.8 nmol/g of tissue, the “8-PN accumulation, single-ingestion test (at 24 h)” value ([2]; lung) was 1.8 ± 0.9 nmol/g of tissue and the “AUC (0–48 h) 8-PN/IXA” value ([2]; lung) was 109% and 109.3%. For the same compound, the “C max 8-PN” value ([2]; lung, measured at 2 h) was 4.5 ± 2.5 nmol/g of tissue, the “AUC (0–48 h) 8-PN/IXA” value ([2]; pancreas) was 1% and the “C max 8-PN” value ([2]; pancreas, measured at 1 h) was 0.6 ± 0.5 nmol/g of tissue. The “8-PN accumulation, 14-day repeated-ingestion test” value ([3]; brain) was 0.8 ± 0.7 nmol/g of tissue, the “8-PN accumulation, 14-day repeated-ingestion test” value ([3]; heart) was “not detected” and the “8-PN accumulation, 14-day repeated-ingestion test” value ([3]; liver) was 2.1 ± 0.4 nmol/g of tissue. For the same compound, the “8-PN accumulation, 14-day repeated-ingestion test” value ([3]; lung) was 3.9 ± 3.5 nmol/g of tissue, the “8-PN accumulation, 14-day repeated-ingestion test” value ([3]; muscle) was 0.1 ± 0.0 nmol/g of tissue and the “8-PN accumulation, 14-day repeated-ingestion test” value ([3]; plasma) was “not detected”. For the same compound, the “8-PN accumulation, 14-day repeated-ingestion test” value ([3]; spleen) was 0.6 ± 0.6 nmol/g of tissue, the “8-PN accumulation, 14-day repeated-ingestion test” value ([3]; thymus) was 0.6 ± 0.5 nmol/g of tissue and the “amount of 8-PN relative to that of IXA (times higher)” value ([4]; IXA 112.5 mg/kg, 28 days) was “approximately two”. For the same compound, the “8-PN levels compared with those of IXA” value ([4]; IXA 1500 mg/kg, 28 days) was “approximately 7.4%” and the “correlation coefficient between dose-concentration and accumulation” value ([4]; IXA 112.5–1500 mg/kg BW once a day for 28 days, Pearson) was “−.255”.
With CC(C)=CCc1c(O)cc2c(c1O)C(=O)C[C@@H](c1ccc(O)cc1)O2 [6‐PN, 6‐prenylnaringenin] the “presence of 6-PN in the samples analyzed in this study” value ([2]; mouse, in vivo) was “not detected”.
